According to US9526785B2, “Pharmaceuticals for oral delivery” (Enteris BioPharma, Inc., priority 2013, dated 2016):
Where “and” joins values, the source holds several entries; their conditions need not be identical. Equal values may be shown once. Read-outs that look alike come from different tables or passages of the source.

Columns and labels:
in vivo [1] = format: in vivo, Beagle dogs
Procedure: (§1) Adult Beagle dogs weighing approximately 10 to 15 kg were used in the study. The animals were housed at Sinclair Research Center, Columbia, Mo. either individually or in pairs in over-sized dog runs. […] A 12-hour light/12-hour dark photoperiod was maintained. Room temperature was set to be maintained at 20±5° C. Relative humidity was monitored but not controlled. Animal room and pen cleaning were performed according to the testing facility (Sinclair) SOPs.
(§2) Animals were fasted overnight prior to drug administration and throughout the blood collection period.
(§3) Adult female Beagle dogs, weighing 9-15 kg were used in the oral and IV studies. Dogs were fasted overnight before the beginning of each study but were allowed free access to water. On the day of the study, one pre-dose blood sample of 3 mL was collected from each animal.
(§4) After administration of the drug, 3 mL blood samples were collected from the brachial vein at various time-points up to 240 minutes (4 hours) post-administration. Blood samples were collected into new heparinized monovette sampling syringes. The samples were placed on ice before being centrifuged for 10 minutes at approximately 2750 rpm at 2-8° C. Each tube was labeled with the dog ID # and time-point, and they were stored at −20° C. pending shipment.
Plasma samples were diluted appropriately with the kit assay buffer.
The maximum plasma concentration (Cmax) values and their times of occurrence (Tmax) were obtained directly from the plasma concentration vs. time profiles. The areas under the plasma concentration-time curves (AUClast) were estimated by the linear trapezoidal rule from time zero to the time of the last observed plasma concentration.

in vivo [2] = details: female, beagle, dog, po
Procedure: as §1, §2, §3, §4
Plasma samples were diluted appropriately with the kit assay buffer. […]

[3] = female, beagle, dog, in vivo, iv, 0.1 mg

NC[C@H]1O[C@H](O[C@H]2[C@H](O)[C@@H](O[C@H]3O[C@H](CO)[C@@H](O)[C@H](N)[C@H]3O)[C@H](N)C[C@@H]2N)[C@H](N)C[C@@H]1O [Tobramycin]
AUC (in vivo [1]; female, Beagle, dog, in vivo, iv, 0.1 mg, AUC, Mean): 29.7 ng·h/mL | Cmax (in vivo [1]; female, Beagle, dog, in vivo, iv, 0.1 mg, Cmax, individual dogs): 38.4 ng/mL | Tmax (in vivo [1]; female, Beagle, dog, in vivo, iv, 0.1 mg, individual dogs): 5 min | Cmax, Mean (in vivo [1]; [3]): 31.22 ng/mL | Tmax, individual dogs (in vivo [1]; [3]): 5 min | Cmax (in vivo [1]; female, beagle, dog, in vivo, iv, 0.1 mg, Cmax, Mean): 31 ng/mL | Tmax (in vivo [1]; female, beagle, dog, in vivo, iv, 0.1 mg, Mean): 5 min | bioavailability (in vivo [2]): 15%

NC[C@H]1O[C@H](O[C@H]2[C@H](O)[C@@H](O[C@H]3O[C@H](CO)[C@@H](O)[C@H](N)[C@H]3O)[C@H](N)C[C@@H]2N)[C@H](O)[C@@H](O)[C@@H]1O [Kanamycin]
concentration at 0 min (in vivo [1]; female, Beagle, dog, plasma, iv, 0.1 mg, single IV bolus 0.10 mg, 0 min, read-out: Plasma Concentration, Mean): 0 ng/mL | concentration at 0 min (in vivo [1]; female, Beagle, dog, plasma, iv, 0.1 mg, single IV bolus 0.10 mg, 0 min, read-out: Plasma Concentration, individual dogs): 0 ng/mL | concentration at 5 min (in vivo [1]; female, Beagle, dog, plasma, iv, 0.1 mg, single IV bolus 0.10 mg, 5 min): 40.8 ng/mL | concentration at 10 min (in vivo [1]; female, Beagle, dog, plasma, iv, 0.1 mg, single IV bolus 0.10 mg, 10 min): 38.6 ng/mL | concentration at 15 min (in vivo [1]; female, Beagle, dog, plasma, iv, 0.1 mg, single IV bolus 0.10 mg, 15 min): 40.3 ng/mL | concentration at 20 min (in vivo [1]; female, Beagle, dog, plasma, iv, 0.1 mg, single IV bolus 0.10 mg, 20 min): 32.1 ng/mL | concentration at 30 min (in vivo [1]; female, Beagle, dog, plasma, iv, 0.1 mg, single IV bolus 0.10 mg, 30 min): 34.6 ng/mL | concentration at 40 min (in vivo [1]; female, Beagle, dog, plasma, iv, 0.1 mg, single IV bolus 0.10 mg, 40 min, read-out: Plasma Concentration, Mean): 27.2 ng/mL | concentration at 40 min (in vivo [1]; female, Beagle, dog, plasma, iv, 0.1 mg, single IV bolus 0.10 mg, 40 min, read-out: Plasma Concentration, individual dogs): 29.9 ng/mL | concentration at 60 min (in vivo [1]; female, Beagle, dog, plasma, iv, 0.1 mg, single IV bolus 0.10 mg, 60 min, read-out: Plasma Concentration, Mean): 25.6 ng/mL | concentration at 60 min (in vivo [1]; female, Beagle, dog, plasma, iv, 0.1 mg, single IV bolus 0.10 mg, 60 min, read-out: Plasma Concentration, individual dogs): 31 ng/mL | concentration at 90 min (in vivo [1]; female, Beagle, dog, plasma, iv, 0.1 mg, single IV bolus 0.10 mg, 90 min): 9.24 ng/mL | concentration at 120 min (in vivo [1]; female, Beagle, dog, plasma, iv, 0.1 mg, single IV bolus 0.10 mg, 120 min): 10 ng/mL | concentration at 240 min (in vivo [1]; female, Beagle, dog, plasma, iv, 0.1 mg, single IV bolus 0.10 mg, 240 min): 1.61 ng/mL | AUC (in vivo [1]; female, Beagle, dog, plasma, iv, 0.1 mg, single IV bolus 0.10 mg, read-out: AUC, Mean (converted)): 54.2 ng·h/mL | AUC (in vivo [1]; female, Beagle, dog, plasma, iv, 0.1 mg, single IV bolus 0.10 mg, read-out: AUC, individual dogs (converted)): 46.5 ng·h/mL | Cmax (in vivo [1]; female, Beagle, dog, plasma, iv, 0.1 mg, single IV bolus 0.10 mg, read-out: Cmax, Mean): 50 ng/mL | AUC, individual dogs (in vivo [1]; single IV bolus 0.10 mg): 3806 ng·min/mL and 3169 ng·min/mL | Cmax, Mean (in vivo [1]; single IV bolus 0.10 mg): 50.21 ng/mL | Cmax, individual dogs (in vivo [1]; single IV bolus 0.10 mg): 77.73 ng/mL and 54.88 ng/mL and 18.01 ng/mL | Tmax, individual dogs (in vivo [1]; single IV bolus 0.10 mg): 15 min and 60 min | Plasma Concentration, individual dogs (in vivo [1]; single IV bolus 0.10 mg, 0 min): 0 ng/mL | Plasma Concentration, individual dogs (in vivo [1]; single IV bolus 0.10 mg, 5 min): 77.73 ng/mL and 40.56 ng/mL and 3.97 ng/mL | Plasma Concentration, individual dogs (in vivo [1]; single IV bolus 0.10 mg, 10 min): 37.75 ng/mL and 7.52 ng/mL | Plasma Concentration, individual dogs (in vivo [1]; single IV bolus 0.10 mg, 15 min): 9.70 ng/mL | Plasma Concentration, individual dogs (in vivo [1]; single IV bolus 0.10 mg, 20 min): 39.87 ng/mL and 14.59 ng/mL | Plasma Concentration, individual dogs (in vivo [1]; single IV bolus 0.10 mg, 30 min): 43.81 ng/mL and 42.52 ng/mL and 17.48 ng/mL | Plasma Concentration, individual dogs (in vivo [1]; single IV bolus 0.10 mg, 40 min): 34.08 ng/mL and 17.58 ng/mL | Plasma Concentration, individual dogs (in vivo [1]; single IV bolus 0.10 mg, 60 min): 27.79 ng/mL and 18.01 ng/mL | Plasma Concentration, individual dogs (in vivo [1]; single IV bolus 0.10 mg, 90 min): 0 ng/mL and 9.81 ng/mL and 17.91 ng/mL | Plasma Concentration, individual dogs (in vivo [1]; single IV bolus 0.10 mg, 120 min): 0 ng/mL and 13.36 ng/mL and 16.63 ng/mL | Plasma Concentration, individual dogs (in vivo [1]; single IV bolus 0.10 mg, 240 min): 0 ng/mL (2×) and 4.84 ng/mL
